# In US9926602B2, “Recurrent gene fusions in prostate cancer” (THE REGENTS OF THE UNIVERSITY OF MICHIGAN, priority 2009, dated 2018):
# System: UBE2L3-KRAS fusion protein
# Assay: Western blot of UBE2L3-KRAS fusion protein with or without bortezomib
# Assay type: cell-based, human
# Description: The prostate cancer cell lines DU145 were transfected with siRNA duplex (Dharmacon, Lafayette, Colo., USA) against UBE2L3 (5′-CCACCGAAGATCACATTTA-3′; SEQ ID NO:1), KRAS (5′-GAAGTTATGGAATTCCTTT-3′; SEQ ID NO:2) or the fusion junction (5′-CCGACCAAGGCCTGCTGAA-3′; SEQ ID NO:3) by oligofectamine (Invitrogen). DU145 transfected with non-targeting siRNA and RWPE cells was used as negative control. Post 48 hours transfection, cells were homogenized in NP40 lysis buffer (50 mM Tris-HCl, 1% NP40, pH 7.4, Sigma, St. Louis, Mo.), and complete proteinase inhibitor mixture (Roche, Indianapolis, Ind.). Ten micrograms of each protein extract were boiled in sample buffer, separated by SDS-PAGE, and transferred onto Polyvinylidene Difluoride membrane (GE Healthcare, Piscataway, N.J.). The membrane was incubated for one hour in blocking buffer [Tris-buffered saline, 0.1% Tween (TBS-T), 5% nonfat dry milk] and incubated overnight at 4° C. with the following antibodies: anti-RAS mouse monoclonal (1:1000 in blocking buffer, Millipore Cat #: 05-516), anti-KRAS rabbit polyclonal (1:1000, Proteintech Group Inc., Cat #: 12063-1-AP) and anti-beta Actin mouse monoclonal (1:5000, Sigma Cat #: A5441) antibodies. Following three washes with TBS-T, the blot was incubated with horseradish peroxidase-conjugated secondary antibody and the signals visualized by enhanced chemiluminescence system as described by the manufacturer (GE Healthcare). To test fusion protein expression in multiple prostate derived cell lines, lysates from DU145, PrEC, RWPE, 22RV1, VCaP, PC3 either untreated or treated with 500 nM bortezomib for 12 hours were used. Bortezomib treated HEK cells over-expressing UBE2L3-KRAS fusion protein was used as a positive control. […] For ERK activation analysis NIH 3T3 cells were starved for 12 hours before immunoblot analysis using phospho erk1/2 antibody. All antibodies for the MAPK signaling proteins were purchased from Cell Signaling Technologies.
compound,measurement,setting,value
CC(C)C[C@H](NC(=O)[C@H](Cc1ccccc1)NC(=O)c1cnccn1)B(O)O [bortezomib],levels of UBE2L3-KRAS protein expression,DU145 cells incubated with bortezomib,enhanced
same,expression of the UBE2L3-KRAS fusion protein,"HEK293 cells over-expressing UBE2L3-KRAS construct, in the presence of bortezomib",clearly apparent
same,expression of the UBE2L3-KRAS fusion protein,RWPE cells overexpressing UBE2L3-KRAS,required
